Assay results published in patent publication US6737383B1, “Herbicidal oxadiazolidines” (priority 1999, dated 2004).

Experiments:
surinam grass = assay: Test B pre/postemergence surinam grass; assay type: in vivo, Brachiaria decumbens
Outline: (§1)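 Test chemicals in a non-phytotoxic solvent mixture with surfactant were sprayed preemergence onto planted seeds and postemergence onto plants 2 to 18 cm tall (1- to 4-leaf stage). After twelve to sixteen days in a greenhouse, injury was visually rated against untreated controls from 0 (no effect) to 10 (complete control).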

wild oat = assay: Test B pre/postemergence wild oat; assay type: in vivo, Avena fatua
Outline: as §1

bedstraw = assay: Test B pre/postemergence bedstraw; assay type: in vivo, Galium aparine
Outline: as §1

crabgrass = assay: Test B pre/postemergence crabgrass; assay type: in vivo, Digitaria sanguinalis
Outline: as §1

cocklebur = assay: Test B pre/postemergence cocklebur; assay type: in vivo, Xanthium strumarium
Outline: as §1

corn = assay: Test B pre/postemergence corn; assay type: in vivo, Zea mays
Outline: as §1

purple nutsedge = assay: Test B pre/postemergence purple nutsedge; assay type: in vivo, Cyperus rotundus
Outline: as §1

smallflower flatsedge = assay: Test B flood test smallflower flatsedge; assay type: in vivo, Cyperus difformis
Outline: (§2)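 Each value is a visual injury score relative to controls, with 10 meaning complete control and 0 no effect. Evaluation took place twelve to sixteen days after the 2-leaf-stage plants were treated and kept in the greenhouse.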

wheat = assay: Test B pre/postemergence wheat; assay type: in vivo, Triticum aestivum
Outline: as §1

duck salad = assay: Test B flood test duck salad; assay type: in vivo, Heteranthera limosa
Outline: as §2

blackgrass = assay: Test B pre/postemergence blackgrass; assay type: in vivo, Alopecurus myosuroides
Outline: as §1

giant foxtail = assay: Test B pre/postemergence giant foxtail; assay type: in vivo, Setaria faberii
Outline: as §1

velvetleaf = assay: Test B pre/postemergence velvetleaf; assay type: in vivo, Abutilon theophrasti
Outline: as §1

rice = assay: Test B flood test rice; assay type: in vivo, Oryza sativa
Outline: as §2

bamyardgrass = assay: Test B flood test barnyardgrass; assay type: in vivo, Echinochloa crus-galli
Outline: as §2

morningglory = assay: Test B pre/postemergence morningglory; assay type: in vivo, Ipomoea hederacea
Outline: as §1

[1] = Postemergence, Rate 62 g/ha, scale 0 to 10, 0 is no effect, 10 is complete control
[2] = Postemergence, Rate 250 g/ha, scale 0 to 10, 0 no effect, 10 complete control
[3] = Preemergence, Rate 31 g/ha, visual rating, scale 0 to 10 (0 no effect, 10 complete control)
[4] = Preemergence, Rate 62 g/ha, scale 0 to 10, 0 is no effect, 10 is complete control
[5] = Preemergence, Rate 125 g/ha, scale 0 to 10 (0 no effect, 10 complete control)
[6] = Preemergence, Rate 250 g/ha, scale of 0 to 10 where 0 is no effect and 10 is complete control
[7] = Rate 31 g/ha, Postemergence, scale 0 to 10
[8] = Rate 125 g/ha, Postemergence, scale 0 to 10, 0 no effect, 10 complete control
[9] = Rate 125 g/ha, Postemergence section (flood test species), scale 0 to 10, 0 no effect, 10 complete control
[10] = flood test, listed under Postemergence, Rate 250 g/ha, scale 0 to 10, 0 no effect, 10 complete control
[11] = Rate 500 g/ha, Postemergence section of Table B, 0 to 10 scale (0 no effect, 10 complete control)

With Cc1cccc(C)c1-n1c(=O)on(C(=O)N(c2ccc(F)cc2F)C(C)C)c1=O [Compound 28] the “B. signalgrass plant response rating” value (surinam grass; [1]) was 0, the “B. signalgrass plant response rating” value (surinam grass; [2]) was 0 and the “B. signalgrass plant response rating” value (surinam grass; [3]) was 0. The “Plant response rating, B. signalgrass” value (surinam grass; [4]) was 0, the “Plant response rating, B. signalgrass” value (surinam grass; [5]) was 0 and the “Plant response rating, B. signalgrass” value (surinam grass; [6]) was 0. For the same compound, the “B. signalgrass plant response rating” value (surinam grass; [7]) was 0, the “B. signalgrass plant response rating” value (surinam grass; [8]) was 0 and the “Wild oats plant response rating” value (wild oat; [1]) was 0. The “Wild oats plant response rating” value (wild oat; [2]) was 0, the “Wild oats plant response rating” value (wild oat; [3]) was 0 and the “Plant response rating, Wild oats” value (wild oat; [5]) was 0. The “Plant response rating, Wild oats” value (wild oat; [6]) was 3, the “Wild oats plant response rating” value (wild oat; [8]) was 0 and the “Bedstraw plant response rating” value (bedstraw; [1]) was 3. For the same compound, the “Bedstraw plant response rating” value (bedstraw; [2]) was 8, the “Bedstraw plant response rating” value (bedstraw; [3]) was 0 and the “Plant response rating, Bedstraw” value (bedstraw; [4]) was 0. For the same compound, the “Plant response rating, Bedstraw” value (bedstraw; [5]) was 0, the “Plant response rating, Bedstraw” value (bedstraw; [6]) was 1 and the “Bedstraw plant response rating” value (bedstraw; [7]) was 3. The “Crabgrass plant response rating” value (crabgrass; [1]) was 3, the “Crabgrass plant response rating” value (crabgrass; [2]) was 9 and the “Crabgrass plant response rating” value (crabgrass; [3]) was 2. For the same compound, the “Plant response rating, Crabgrass” value (crabgrass; [4]) was 3, the “Plant response rating, Crabgrass” value (crabgrass; [5]) was 7 and the “Plant response rating, Crabgrass” value (crabgrass; [6]) was 9. For the same compound, the “Crabgrass plant response rating” value (crabgrass; [7]) was 1, the “Crabgrass plant response rating” value (crabgrass; [8]) was 6 and the “Cocklebur plant response rating” value (cocklebur; [1]) was 0. The “Cocklebur plant response rating” value (cocklebur; [2]) was 3, the “Cocklebur plant response rating” value (cocklebur; [3]) was 0 and the “Plant response rating, Cocklebur” value (cocklebur; [5]) was 0. The “Plant response rating, Cocklebur” value (cocklebur; [6]) was 0, the “Cocklebur plant response rating” value (cocklebur; [7]) was 0 and the “Cocklebur plant response rating” value (cocklebur; [8]) was 0. For the same compound, the “Corn plant response rating” value (corn; [1]) was 0, the “Corn plant response rating” value (corn; [2]) was 0 and the “Corn plant response rating” value (corn; [3]) was 0. The “Plant response rating, Corn” value (corn; [4]) was 0, the “Plant response rating, Corn” value (corn; [5]) was 0 and the “Plant response rating, Corn” value (corn; [6]) was 0. The “Corn plant response rating” value (corn; [7]) was 0, the “Corn plant response rating” value (corn; [8]) was 0 and the “Nutsedge plant response rating” value (purple nutsedge; [1]) was 0. For the same compound, the “Nutsedge plant response rating” value (purple nutsedge; [2]) was 0, the “Nutsedge plant response rating” value (purple nutsedge; [3]) was 0 and the “Plant response rating, Nutsedge” value (purple nutsedge; [4]) was 0. The “Plant response rating, Nutsedge” value (purple nutsedge; [5]) was 0, the “Plant response rating, Nutsedge” value (purple nutsedge; [6]) was 0 and the “Nutsedge plant response rating” value (purple nutsedge; [7]) was 0. For the same compound, the “Nutsedge plant response rating” value (purple nutsedge; [8]) was 0, the “S. Flatsedge plant response rating” value (smallflower flatsedge; [1]) was 0 and the “S. Flatsedge plant response rating” value (smallflower flatsedge; [9]) was 0. The “S. Flatsedge plant response rating” value (smallflower flatsedge; [10]) was 0, the “Wheat plant response rating” value (wheat; [1]) was 0 and the “Wheat plant response rating” value (wheat; [2]) was 0. The “Wheat plant response rating” value (wheat; [3]) was 0, the “Plant response rating, Wheat” value (wheat; [4]) was 0 and the “Plant response rating, Wheat” value (wheat; [5]) was 0. The “Plant response rating, Wheat” value (wheat; [6]) was 0, the “Wheat plant response rating” value (wheat; [8]) was 0 and the “Ducksalad plant response rating” value (duck salad; [1]) was 0. For the same compound, the “Ducksalad plant response rating” value (duck salad; [9]) was 0, the “Ducksalad plant response rating” value (duck salad; [11]) was 4 and the “Ducksalad plant response rating” value (duck salad; [10]) was 0. For the same compound, the “Blackgrass plant response rating” value (blackgrass; [1]) was 0, the “Blackgrass plant response rating” value (blackgrass; [2]) was 6 and the “Blackgrass plant response rating” value (blackgrass; [3]) was 0. The “Plant response rating, Blackgrass” value (blackgrass; [4]) was 0, the “Plant response rating, Blackgrass” value (blackgrass; [5]) was 0 and the “Plant response rating, Blackgrass” value (blackgrass; [6]) was 3. The “Blackgrass plant response rating” value (blackgrass; [7]) was 0, the “Blackgrass plant response rating” value (blackgrass; [8]) was 2 and the “Giant foxtail plant response rating” value (giant foxtail; [1]) was 1. For the same compound, the “Giant foxtail plant response rating” value (giant foxtail; [2]) was 4, the “Giant foxtail plant response rating” value (giant foxtail; [3]) was 0 and the “Plant response rating, Giant foxtail” value (giant foxtail; [4]) was 2. The “Plant response rating, Giant foxtail” value (giant foxtail; [5]) was 5, the “Plant response rating, Giant foxtail” value (giant foxtail; [6]) was 7 and the “Giant foxtail plant response rating” value (giant foxtail; [7]) was 1. For the same compound, the “Giant foxtail plant response rating” value (giant foxtail; [8]) was 2, the “Velvetleaf plant response rating” value (velvetleaf; [1]) was 0 and the “Velvetleaf plant response rating” value (velvetleaf; [2]) was 0. The “Velvetleaf plant response rating” value (velvetleaf; [3]) was 0, the “Plant response rating, Velvetleaf” value (velvetleaf; [4]) was 0 and the “Plant response rating, Velvetleaf” value (velvetleaf; [5]) was 0. The “Plant response rating, Velvetleaf” value (velvetleaf; [6]) was 0, the “Velvetleaf plant response rating” value (velvetleaf; [8]) was 0 and the “Rice plant response rating” value (rice; [1]) was 0. For the same compound, the “Rice plant response rating” value (rice; [9]) was 0, the “Rice plant response rating” value (rice; [11]) was 3 and the “Rice plant response rating” value (rice; [10]) was 2. The “Barnyardgrass plant response rating” value (bamyardgrass; [1]) was 5, the “Barnyardgrass plant response rating” value (bamyardgrass; [9]) was 8 and the “Barnyardgrass plant response rating” value (bamyardgrass; [11]) was 10. The “Barnyardgrass plant response rating” value (bamyardgrass; [10]) was 9, the “Morningglory plant response rating” value (morningglory; [1]) was 2 and the “Morningglory plant response rating” value (morningglory; [2]) was 2. For the same compound, the “Morningglory plant response rating” value (morningglory; [3]) was 0, the “Plant response rating, Morningglory” value (morningglory; [4]) was 0 and the “Plant response rating, Morningglory” value (morningglory; [5]) was 0. The “Plant response rating, Morningglory” value (morningglory; [6]) was 0, the “Morningglory plant response rating” value (morningglory; [7]) was 0 and the “Morningglory plant response rating” value (morningglory; [8]) was 2.
